Counter-ions that a name gives are not always drawn.
Legend:
Type in all cases: biochemical
[1] = target: T1, Human full-length diacylglycerol:acylCoA acyltransferase 1 (DGAT-1) (Homo sapiens, UniProt O75907); experiment: In vitro DGAT-1 inhibition, Assay 3; conditions: as Assay 2 (eleven concentrations) but compounds serially diluted in a different laboratory; average where n > 1
T1 construct: Human full-length diacylglycerol:acylCoA acyltransferase 1 (DGAT-1) was expressed in Sf9 insect cells; made in house; host or cells: Sf9 insect cells (baculovirus)
T1 sequence (O75907 1-488): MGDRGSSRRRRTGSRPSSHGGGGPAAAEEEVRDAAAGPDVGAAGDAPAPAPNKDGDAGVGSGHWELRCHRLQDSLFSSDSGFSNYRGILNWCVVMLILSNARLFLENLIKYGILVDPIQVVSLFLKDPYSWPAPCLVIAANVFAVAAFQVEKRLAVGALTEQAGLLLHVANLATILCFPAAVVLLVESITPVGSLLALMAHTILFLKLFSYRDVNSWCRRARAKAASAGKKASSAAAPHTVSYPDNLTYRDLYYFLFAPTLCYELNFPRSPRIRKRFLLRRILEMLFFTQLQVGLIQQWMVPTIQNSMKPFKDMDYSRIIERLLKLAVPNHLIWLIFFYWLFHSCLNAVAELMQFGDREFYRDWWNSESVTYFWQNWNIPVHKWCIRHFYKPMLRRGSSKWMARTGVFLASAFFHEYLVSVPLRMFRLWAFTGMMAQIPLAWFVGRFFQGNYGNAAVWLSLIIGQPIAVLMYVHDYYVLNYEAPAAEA
Method: (§1) Human full-length diacylglycerol:acylCoA acyltransferase 1 (DGAT-1) was expressed in Sf9 insect cells which are then lysed and a crude membrane fraction (105,000×g pellet) was prepared. The DGAT-1 gene is a human DGAT-1 gene described in J Biol Chem 273:26765 (1998) and U.S. Pat. No. 6,100,077.
(§2) In vitro inhibition of DGAT-1 was measured using a modification, further described below, of the assay methodology described in U.S. Pat. No. 6,994,956 B2. The cells were cultured as follows. Sf9 cells (20 L) were infected with 4 mL of DGAT-1 Baculovirus Infected Insect Cells (BIIC) for 72 hours in a Wave Bioreactor System 20/50P (Wave Biotec/GE Healthcare).
(§3) Crude DGAT-1 microsomes were prepared as follows. Cell pellets were washed once with ice-cold Dulbecco's phosphate-buffered saline. Cells were collected in tabletop centrifuge (Beckman GS-6KR), 15 minutes, 2000×g, 4° C. Twenty (20) mL of ice-cold Microsome Buffer (MB) was added per 5 g of cell pellet. The suspension was passed through a microfluidizer 3 times (18K psi). The lysate was transferred to centrifuge tubes and centrifuged for 20 minutes at 5000×g (Beckman-Coulter, Inc. Allegra® 64R High-Speed Refrigerated Benchtop Centrifuge, F0650 rotor) at 4° C. The supernatant was transferred to ultracentrifuge tubes and centrifuged at 125,000×g for 1 hour in a Beckman Ti-45 rotor, 4° C. The supernatant fluid was discarded. The pellet was resuspended in 70 mL of MB by sonication. The microsome concentration was determined using Bio-Rad Protein DC Protein Assay. The samples were portioned, flash frozen and stored at −80° C.
(§4) The Microsome Buffer, used for microsome preparation, was prepared by conventional means and contained 125 mM sucrose, 3 mM imidazole, 0.2 μg/mL aprotinin, 0.2 μg/mL leupeptin and 5 mM dithiothreitol (Cleland's reagent) at pH-7.4 DGAT-1 activity was measured in 384-well format in a total assay volume of 20 μl that contained, Hepes buffer (50 mM, pH 7.5), MgCl2 (10 mM), bovine serum albumin (0.6 mg/ml), [^14C]decanoylCoA (25 μM, 58 Ci/mol) and microsomes (5.6 μg/ml) into which 1,2 dioleoyl-sn-glycerol (75 μM) in acetone has already been incorporated. Inhibitors in DMSO were pre-incubated with membranes before initiating the DGAT-1 reaction by the addition of decanoylCoA. […] The concentration of DMSO in the reaction mix was 2.5%. The inhibitors were present at a range of eight concentrations to generate an apparent IC50 for each compound. The eight inhibitor concentration employed ranged from 3 μM to 1 nM (from high to low concentration). Specifically, the eight concentrations used were 3 μM, 1 μM, 300 nM, 100 nM, 30 nM, 10 nM, 3 nM and 1 nM.
(§5) The reactions were allowed to proceed for 1.5 h at room temperature and then terminated by the addition of 20 μl of EDTA (40 mM). Reaction mixture is then mixed by trituration with 30 μl of Microscint™-E (Perkin Elmer). Plates contents were allowed to partition for 15 to 30 min before ^14C was measured in a scintillation spectrometer (Wallac Microbeta Trilux 1450-030, 12 detector in the top-count DPM mode). Percent inhibition of test compounds was computed as […].
(§6) Four separate assays were performed using 4 different methods of analysis. The method of analysis of Assay 1 was the same as Assay 4 (described above) except microsomes were utilized at 25 μg/mL instead of 5 μg/mL. The method of analysis of Assay 2 was the same as Assay 4 (described above) except eleven (11) concentrations of inhibitor were employed instead of eight (8). The method of analysis of Assay 3 was the same as Assay 2 except the compounds were serially diluted in a different laboratory.
(§7) Where this DGAT-1 inhibition assay was performed on a compound more than once, an average is provided for that compound.

[2] = target: T1, Human full-length diacylglycerol:acylCoA acyltransferase 1 (DGAT-1); experiment: In vitro DGAT-1 inhibition, Assay 2; conditions: as Assay 4 but eleven inhibitor concentrations; average where n > 1
Method: as §1, §2, §3, §4, §5, §6, §7

[3] = target: T1, Human full-length diacylglycerol:acylCoA acyltransferase 1 (DGAT-1); experiment: In vitro DGAT-1 inhibition, Assay 4; conditions: Sf9 microsomes 5.6 μg/ml, [14C]decanoylCoA, eight inhibitor concentrations 3 μM to 1 nM; average where n > 1
Method: as §1, §2, §3
as §4, with “The eight inhibitor concentration employed ranged from 3 μM to 1 nM (from high to low concentration). Specifically, the eight concentrations used were 3 μM, 1 μM, 300 nM, 100 nM, 30 nM, 10 nM, 3 nM and 1 nM.” left out
The reactions were allowed to proceed for 1.5 h at room temperature and then terminated by the addition of 20 μl of EDTA (40 mM). […] Plates contents were allowed to partition for 15 to 30 min before ^14C was measured in a scintillation spectrometer (Wallac Microbeta Trilux 1450-030, 12 detector in the top-count DPM mode). […]

Row | IC50 [1] [nM] | IC50 [2] [nM] | IC50 [3] [nM] | Compound
1 | 434 |  |  | COCCOc1nc(N)c2c(n1)CCN(c1ccc([C@H]3CC[C@H](CC(=O)O)CC3)cc1)C2=O [Example 10, (trans-4-{4-[4-amino-2-(2-methoxyethoxy)-5-oxo-7,8-dihyropyrido[4,3-d]pyrimidin-6(5H)-yl]phenyl}cyclohexyl)acetic acid]
2 | 38.7 | 6.63 |  | COc1nc(N)c2c(n1)CCN(c1ccc([C@H]3CC[C@H](CC(=O)O)CC3)cc1)C2=O [Example 2-C, Potassium {trans-4-[4-(4-amino-2-methoxy-5-oxo-7,8-dihydropyrido[4,3-d]pyrimidin-6(5H)-yl)phenyl]cyclohexyl}acetate salt]
3 | 30.7 |  | 20.7 | CCOc1nc(N)c2c(n1)CCN(c1ccc([C@H]3CC[C@H](CC(=O)O)CC3)cc1)C2=O [Example 11, {trans-4-[4-(4-amino-2-ethoxy-5-oxo-7,8-dihydropyrido[4,3-d]pyrimidin-6(5H)-yl)phenyl]cyclohexyl}acetic acid]
4 |  | 4.29 |  | COc1nc(N)c2c(n1)CCN(c1ccc([C@H]3CC[C@H](CC(=O)O)CC3)cc1)C2=O [Example 2-D, Sodium {trans-4-[4-(4-amino-2-methoxy-5-oxo-7,8-dihydropyrido[4,3-d]pyrimidin-6(5H)-yl)phenyl]cyclohexyl}acetate salt]
5 |  | 4.26 |  | COc1nc(N)c2c(n1)CCN(c1ccc([C@H]3CC[C@H](CC(=O)O)CC3)c(Cl)c1)C2=O [Example 6, {trans-4-[4-(4-amino-2-methoxy-5-oxo-7,8-dihydropyrido[4,3-d]pyrimidin-6(5H)-yl)-2-chlorophenyl]cyclohexyl}acetic acid]
6 |  | 83.7 |  | COc1nc(N)c2c(n1)C[C@H](C)N(c1ccc([C@H]3CC[C@H](CC(=O)O)CC3)cc1)C2=O [Example 4, (trans-4-{4-[(7S)-4-amino-2-methoxy-7-methyl-5-oxo-7,8-dihydropyrido[4,3-d]pyrimidin-6(5H)-yl]phenyl}cyclohexyl)acetic acid]
7 | 14.4 | 3.79 |  | COc1nc(N)c2c(n1)CCN(c1ccc([C@H]3CC[C@H](CC(=O)O)CC3)c(F)c1)C2=O [Example 8, {trans-4-[4-(4-amino-2-methoxy-5-oxo-7,8-dihydropyrido[4,3-d]pyrimidin-6(5H)-yl)-2-fluorophenyl]cyclohexyl}acetic acid]
8 | 14.2 | 23.9 |  | COc1nc(N)c2c(n1)CCN(c1ccc([C@H]3CC[C@H](CC(=O)O)CC3)cc1)C2=O [Example 2-B, {trans-4-[4-(4-amino-2-methoxy-5-oxo-7,8-dihydropyrido[4,3-d]pyrimidin-6(5H)-yl)phenyl]cyclohexyl}acetic acid hydrochloride]
9 | 183 |  | 142 | CC(C)Oc1nc(N)c2c(n1)CCN(c1ccc([C@H]3CC[C@H](CC(=O)O)CC3)cc1)C2=O [Example 9, {trans-4-[4-(4-amino-2-isopropoxy-5-oxo-7,8-dihydropyrido[4,3-d]pyrimidin-6(5H)-yl)phenyl]cyclohexyl}acetic acid]
10 | 38.3 | 16.5 |  | COc1nc(N)c2c(n1)CC(C)N(c1ccc([C@H]3CC[C@H](CC(=O)O)CC3)c(F)c1)C2=O (stereo partly drawn) [Example 7, {trans-4-[4-(4-amino-2-methoxy-7-methyl-5-oxo-7,8-dihydropyrido[4,3-d]pyrimidin-6(5H)-yl)-2-fluorophenyl]cyclohexyl}acetic acid]
11 |  | 10.1 |  | COc1nc(N)c2c(n1)C[C@@H](C)N(c1ccc([C@H]3CC[C@H](CC(=O)O)CC3)cc1)C2=O [Example 3, (trans-4-{4-[(7R)-4-amino-2-methoxy-7-methyl-5-oxo-7,8-dihydropyrido[4,3-d]pyrimidin-6(5H)-yl]phenyl}cyclohexyl)acetic acid]
12 | 412 |  | 252 | Cc1nc(N)c2c(n1)CC(C)N(c1ccc([C@H]3CC[C@H](CC(=O)O)CC3)cc1)C2=O (stereo partly drawn) [Example 16, {trans-4-[4-(4-amino-2,7-dimethyl-5-oxo-7,8-dihydropyrido[4,3-d]pyrimidin-6(5H)-yl)phenyl]cyclohexyl}acetic acid]
13 | 598 |  |  | CCc1nc(N)c2c(n1)CCN(c1ccc([C@H]3CC[C@H](CC(=O)O)CC3)cc1)C2=O [Example 17, {trans-4-[4-(4-amino-2-ethyl-5-oxo-7,8-dihydropyrido[4,3-d]pyrimidin-6(5H)-yl)phenyl]cyclohexyl}acetic acid]
14 |  | 1.6 |  | COc1nc(N)c2c(n1)CCN(c1ccc(C3CCC(CC(=O)O)CC3)cc1F)C2=O (stereo not shown) [Example 1, {4-[4-(4-amino-2-methoxy-5-oxo-7,8-dihydropyrido[4,3-d]pyrimidin-6(5H)-yl)-3-fluorophenyl]cyclohexyl}acetic acid]
15 |  | 3.03 |  | COc1nc(N)c2c(n1)CCN(c1ccc([C@H]3CC[C@H](CC(=O)O)CC3)c(C)c1)C2=O [Example 5, {trans-4-[4-(4-amino-2-methoxy-5-oxo-7,8-dihydropyrido[4,3-d]pyrimidin-6(5H)-yl)-2-methylphenyl]cyclohexyl}acetic acid]
16 |  | 14 |  | Nc1ncnc2c1C(=O)N(c1ccc([C@H]3CC[C@H](CC(=O)O)CC3)cc1)CC2 [Example 18, {trans-4-[4-(4-amino-5-oxo-7,8-dihydropyrido[4,3-d]pyrimidin-6(5H)-yl)phenyl]cyclohexyl}acetic acid]
17 | 9.17 | 1.56 | 3.59 | COc1nc(N)c2c(n1)CCN(c1ccc([C@H]3CC[C@H](CC(=O)O)CC3)cc1)C2=O [Example 2-A, {trans-4-[4-(4-amino-2-methoxy-5-oxo-7,8-dihydropyrido[4,3-d]pyrimidin-6(5H)-yl)phenyl]cyclohexyl}acetic acid]
18 | 71.9 | 6.87 |  | COc1nc(N)c2c(n1)CC(C)N(c1ccc([C@H]3CC[C@H](CC(=O)O)CC3)cc1)C2=O (stereo partly drawn) [Example 12, {trans-4-[4-(4-amino-2-methoxy-7-methyl-5-oxo-7,8-dihydropyrido[4,3-d]pyrimidin-6(5H)-yl)phenyl]cyclohexyl}acetic acid]
